# Measurements from PubChem BioAssay (NCI).
#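 Following 48 hours of exposure in 96-well plates, responses at five concentrations were used to interpolate endpoints linearly. The concentration for full growth arrest is given as TGI.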
# What was measured:
# Assay in all cases: NCI anticancer screen, dose series, 48 h
# SK-MEL-28 melanoma = system: SK-MEL-28 melanoma
# ACHN renal = system: ACHN renal
# SF-539 CNS = system: SF-539 CNS
# PC-3 prostate = system: PC-3 prostate
# NCI-H460 lung = system: NCI-H460 lung
# TK-10 renal = system: TK-10 renal
# SF-268 CNS = system: SF-268 CNS
# SNB-19 CNS = system: SNB-19 CNS
# HT29 colon = system: HT29 colon
# RPMI-8226 leukemia = system: RPMI-8226 leukemia
# OVCAR-4 ovarian = system: OVCAR-4 ovarian
# SNB-75 CNS = system: SNB-75 CNS
# A498 renal = system: A498 renal
# COLO 205 colon = system: COLO 205 colon
# UO-31 renal = system: UO-31 renal
# DU-145 prostate = system: DU-145 prostate
# UACC-257 melanoma = system: UACC-257 melanoma
# A549 NSCLC = system: A549 NSCLC
# SW-620 colon = system: SW-620 colon
# HOP-62 NSCLC = system: HOP-62 NSCLC
# MALME-3M melanoma = system: MALME-3M melanoma
# HCT-15 colon = system: HCT-15 colon
# EKVX NSCLC = system: EKVX NSCLC
# KM12 colon = system: KM12 colon
# RXF 393 renal = system: RXF 393 renal
# HCT-116 colon = system: HCT-116 colon
# U251 CNS = system: U251 CNS
# 786-0 renal = system: 786-0 renal
# CCRF-CEM leukemia = system: CCRF-CEM leukemia
# MDA-MB-231 breast = system: MDA-MB-231 breast
# SF-295 CNS = system: SF-295 CNS
# HL-60(TB) leukemia = system: HL-60(TB) leukemia
# LOX IMVI melanoma = system: LOX IMVI melanoma
# OVCAR-5 ovarian = system: OVCAR-5 ovarian
# NCI-H522 lung = system: NCI-H522 lung
# MDA-MB-435 = system: MDA-MB-435
# OVCAR-3 ovarian = system: OVCAR-3 ovarian
# SK-MEL-5 melanoma = system: SK-MEL-5 melanoma
# MOLT-4 leukemia = system: MOLT-4 leukemia
# NCI/ADR-RES ovarian = system: NCI/ADR-RES ovarian
# BT-549 breast = system: BT-549 breast
# OVCAR-8 ovarian = system: OVCAR-8 ovarian
# HS 578T breast = system: HS 578T breast
# NCI-H226 lung = system: NCI-H226 lung
# K-562 leukemia = system: K-562 leukemia
# SN12C renal = system: SN12C renal
# MCF7 breast = system: MCF7 breast
# IGROV1 ovarian = system: IGROV1 ovarian
# NCI-H23 lung = system: NCI-H23 lung
# HOP-92 NSCLC = system: HOP-92 NSCLC
# SR leukemia = system: SR leukemia
# HCC-2998 colon = system: HCC-2998 colon
# CAKI-1 renal = system: CAKI-1 renal
# SK-OV-3 ovarian = system: SK-OV-3 ovarian
# SK-MEL-2 melanoma = system: SK-MEL-2 melanoma
# M14 melanoma = system: M14 melanoma
# UACC-62 melanoma = system: UACC-62 melanoma
# T-47D breast = system: T-47D breast
structure (smiles),measurement,setting,value
COC1(OC)CC(CO)(CNc2nc(N)nc(Cl)c2C=O)C1,TGI,SK-MEL-28 melanoma,> 100 µM
same,TGI,ACHN renal,13 µM
same,TGI,SF-539 CNS,> 100 µM
same,TGI,PC-3 prostate,77.4 µM
same,TGI,NCI-H460 lung,> 100 µM
same,TGI,TK-10 renal,> 100 µM
same,TGI,SF-268 CNS,> 100 µM
same,TGI,SNB-19 CNS,> 100 µM
same,TGI,HT29 colon,> 100 µM
same,TGI,RPMI-8226 leukemia,> 100 µM
same,TGI,OVCAR-4 ovarian,90.4 µM
same,TGI,SNB-75 CNS,> 100 µM
same,TGI,A498 renal,> 100 µM
same,TGI,COLO 205 colon,> 100 µM
same,TGI,UO-31 renal,> 100 µM
same,TGI,DU-145 prostate,> 100 µM
same,TGI,UACC-257 melanoma,71.6 µM
same,TGI,A549 NSCLC,> 100 µM
same,TGI,SW-620 colon,> 100 µM
same,TGI,HOP-62 NSCLC,> 100 µM
same,TGI,MALME-3M melanoma,> 100 µM
same,TGI,HCT-15 colon,> 100 µM
same,TGI,EKVX NSCLC,52.2 µM
same,TGI,KM12 colon,> 100 µM
same,TGI,RXF 393 renal,> 100 µM
same,TGI,HCT-116 colon,> 100 µM
same,TGI,U251 CNS,> 100 µM
same,TGI,786-0 renal,> 100 µM
same,TGI,CCRF-CEM leukemia,> 100 µM
same,TGI,MDA-MB-231 breast,43.9 µM
same,TGI,SF-295 CNS,> 100 µM
same,TGI,HL-60(TB) leukemia,35.8 µM
same,TGI,LOX IMVI melanoma,35.2 µM
same,TGI,OVCAR-5 ovarian,> 100 µM
same,TGI,NCI-H522 lung,3.96 µM
same,TGI,MDA-MB-435,85.9 µM
same,TGI,OVCAR-3 ovarian,> 100 µM
same,TGI,SK-MEL-5 melanoma,> 100 µM
same,TGI,MOLT-4 leukemia,60.1 µM
same,TGI,NCI/ADR-RES ovarian,88.1 µM
same,TGI,BT-549 breast,> 100 µM
same,TGI,OVCAR-8 ovarian,> 100 µM
same,TGI,HS 578T breast,> 100 µM
same,TGI,NCI-H226 lung,> 100 µM
same,TGI,K-562 leukemia,32.1 µM
same,TGI,SN12C renal,> 100 µM
same,TGI,MCF7 breast,> 100 µM
same,TGI,IGROV1 ovarian,48.3 µM
same,TGI,NCI-H23 lung,48.5 µM
same,TGI,HOP-92 NSCLC,36.2 µM
same,TGI,SR leukemia,79.5 µM
same,TGI,HCC-2998 colon,84.5 µM
same,TGI,CAKI-1 renal,> 100 µM
CSC(=NC#N)S/C=C/C(=O)c1ccc(Cl)cc1,TGI,SK-MEL-28 melanoma,46.5 µM
same,TGI,ACHN renal,> 100 µM
same,TGI,SF-539 CNS,52.3 µM
same,TGI,PC-3 prostate,> 100 µM
same,TGI,NCI-H460 lung,> 100 µM
same,TGI,TK-10 renal,58.5 µM
same,TGI,SF-268 CNS,62.2 µM
same,TGI,SNB-19 CNS,> 100 µM
same,TGI,HT29 colon,46.4 µM
same,TGI,OVCAR-4 ovarian,> 100 µM
same,TGI,SK-OV-3 ovarian,> 100 µM
same,TGI,SNB-75 CNS,> 100 µM
same,TGI,SK-MEL-2 melanoma,45 µM
same,TGI,COLO 205 colon,71.6 µM
same,TGI,UO-31 renal,45.4 µM
same,TGI,M14 melanoma,45.1 µM
same,TGI,DU-145 prostate,> 100 µM
same,TGI,UACC-257 melanoma,52.2 µM
same,TGI,A549 NSCLC,> 100 µM
same,TGI,SW-620 colon,40.6 µM
same,TGI,HOP-62 NSCLC,> 100 µM
same,TGI,MALME-3M melanoma,55.5 µM
same,TGI,HCT-15 colon,> 100 µM
same,TGI,EKVX NSCLC,> 100 µM
same,TGI,KM12 colon,> 100 µM
same,TGI,RXF 393 renal,42.4 µM
same,TGI,UACC-62 melanoma,74.4 µM
same,TGI,HCT-116 colon,34.5 µM
same,TGI,T-47D breast,75.1 µM
same,TGI,U251 CNS,> 100 µM
same,TGI,786-0 renal,40.8 µM
same,TGI,CCRF-CEM leukemia,> 100 µM
same,TGI,SF-295 CNS,95.5 µM
same,TGI,HL-60(TB) leukemia,> 100 µM
same,TGI,OVCAR-5 ovarian,99.8 µM
same,TGI,NCI-H522 lung,38.5 µM
same,TGI,MDA-MB-435,64.3 µM
same,TGI,OVCAR-3 ovarian,34.7 µM
same,TGI,SK-MEL-5 melanoma,32.7 µM
same,TGI,MOLT-4 leukemia,> 100 µM
same,TGI,NCI/ADR-RES ovarian,63.1 µM
same,TGI,OVCAR-8 ovarian,47.4 µM
same,TGI,HS 578T breast,75.9 µM
same,TGI,K-562 leukemia,> 100 µM
same,TGI,SN12C renal,84.7 µM
same,TGI,MCF7 breast,79.3 µM
same,TGI,IGROV1 ovarian,44.2 µM
same,TGI,NCI-H23 lung,52.4 µM
same,TGI,HOP-92 NSCLC,> 100 µM
same,TGI,SR leukemia,12.6 µM
same,TGI,HCC-2998 colon,> 100 µM
same,TGI,CAKI-1 renal,35.6 µM
